# Reference: patent publication US11420944B2, “Voltage-dependent t-type calcium channel blocker” (Nippon Chemiphar Co., Ltd., priority 2016, dated 2022)
# Where two headings read alike, the source gives them in different places.
# Experiments:
# human Cav3.2 channels [1] = molecular target: T1, human Cav3.2 channels (Homo sapiens, UniProt O95180); experiment: Intracellular calcium concentration measurement (Fluo-4 AM) in stable cells expressing human Cav3.2 channels, buffer A / buffer B; assay type: cell-based
# T1 construct: expressed in transfected cells; host or cells: HEK293 cells (ATCC No. CRL-1573), plasmid pcDNA3.1(+)
# T1 sequence (O95180 whole entry): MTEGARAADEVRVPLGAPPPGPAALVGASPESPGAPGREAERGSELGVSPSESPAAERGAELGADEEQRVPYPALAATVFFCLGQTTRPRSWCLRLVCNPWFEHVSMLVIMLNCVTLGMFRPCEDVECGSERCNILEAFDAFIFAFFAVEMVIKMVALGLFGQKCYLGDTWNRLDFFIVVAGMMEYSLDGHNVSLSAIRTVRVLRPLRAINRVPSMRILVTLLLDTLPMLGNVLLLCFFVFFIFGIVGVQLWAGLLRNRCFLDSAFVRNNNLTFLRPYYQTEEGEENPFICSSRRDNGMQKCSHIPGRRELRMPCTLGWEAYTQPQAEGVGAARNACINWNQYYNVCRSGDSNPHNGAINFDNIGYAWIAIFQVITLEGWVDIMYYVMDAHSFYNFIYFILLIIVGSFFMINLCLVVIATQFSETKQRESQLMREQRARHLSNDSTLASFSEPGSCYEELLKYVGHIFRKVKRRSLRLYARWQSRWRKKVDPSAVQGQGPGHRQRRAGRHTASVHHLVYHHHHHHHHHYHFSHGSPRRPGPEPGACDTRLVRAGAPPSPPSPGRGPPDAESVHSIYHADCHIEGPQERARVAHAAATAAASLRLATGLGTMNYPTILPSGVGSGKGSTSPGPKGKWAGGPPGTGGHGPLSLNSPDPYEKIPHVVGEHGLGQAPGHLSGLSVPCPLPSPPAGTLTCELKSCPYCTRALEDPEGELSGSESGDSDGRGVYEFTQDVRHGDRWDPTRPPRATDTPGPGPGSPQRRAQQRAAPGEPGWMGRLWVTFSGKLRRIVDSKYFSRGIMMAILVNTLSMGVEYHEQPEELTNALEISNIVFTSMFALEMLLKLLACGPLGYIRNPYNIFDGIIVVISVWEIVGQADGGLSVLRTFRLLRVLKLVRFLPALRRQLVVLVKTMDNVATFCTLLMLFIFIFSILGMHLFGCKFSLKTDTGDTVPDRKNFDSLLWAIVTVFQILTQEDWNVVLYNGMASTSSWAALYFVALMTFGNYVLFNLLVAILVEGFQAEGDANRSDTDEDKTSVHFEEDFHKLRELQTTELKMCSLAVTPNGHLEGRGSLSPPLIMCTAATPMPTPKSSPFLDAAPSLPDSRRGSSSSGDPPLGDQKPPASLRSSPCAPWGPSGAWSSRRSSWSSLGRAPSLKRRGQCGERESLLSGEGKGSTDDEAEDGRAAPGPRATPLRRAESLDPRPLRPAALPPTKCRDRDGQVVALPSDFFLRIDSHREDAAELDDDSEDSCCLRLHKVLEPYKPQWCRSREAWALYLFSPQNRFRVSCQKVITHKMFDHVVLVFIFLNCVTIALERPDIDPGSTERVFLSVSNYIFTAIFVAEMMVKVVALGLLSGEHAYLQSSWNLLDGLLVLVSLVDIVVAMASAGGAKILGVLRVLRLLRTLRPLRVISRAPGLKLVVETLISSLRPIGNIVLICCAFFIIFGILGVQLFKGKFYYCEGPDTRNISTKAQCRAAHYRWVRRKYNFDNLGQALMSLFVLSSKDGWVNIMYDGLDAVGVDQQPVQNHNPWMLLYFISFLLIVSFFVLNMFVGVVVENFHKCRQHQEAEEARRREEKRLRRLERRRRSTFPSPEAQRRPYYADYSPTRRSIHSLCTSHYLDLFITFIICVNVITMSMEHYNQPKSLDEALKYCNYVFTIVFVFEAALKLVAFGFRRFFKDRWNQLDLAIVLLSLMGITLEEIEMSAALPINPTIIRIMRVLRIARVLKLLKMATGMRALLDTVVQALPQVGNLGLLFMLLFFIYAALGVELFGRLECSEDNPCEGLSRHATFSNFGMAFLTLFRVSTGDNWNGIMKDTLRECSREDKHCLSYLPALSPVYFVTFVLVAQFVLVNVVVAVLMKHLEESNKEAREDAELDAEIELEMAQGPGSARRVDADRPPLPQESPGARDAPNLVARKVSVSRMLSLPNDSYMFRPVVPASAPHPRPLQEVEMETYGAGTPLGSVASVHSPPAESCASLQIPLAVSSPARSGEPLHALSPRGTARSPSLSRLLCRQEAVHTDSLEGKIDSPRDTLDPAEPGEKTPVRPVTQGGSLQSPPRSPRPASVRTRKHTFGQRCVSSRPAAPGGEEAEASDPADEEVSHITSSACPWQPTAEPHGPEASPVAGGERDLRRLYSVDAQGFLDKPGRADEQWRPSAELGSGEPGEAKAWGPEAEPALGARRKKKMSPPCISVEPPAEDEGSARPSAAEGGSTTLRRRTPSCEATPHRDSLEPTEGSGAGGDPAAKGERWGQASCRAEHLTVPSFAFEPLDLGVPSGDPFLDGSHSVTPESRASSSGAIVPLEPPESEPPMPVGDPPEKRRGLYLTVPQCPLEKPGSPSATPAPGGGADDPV
# Method in brief: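 HEK293 cells stably expressing human Cav3.2, Fluo-4 loaded, preincubated 15 min at room temperature with compound (0.1% DMSO final) in buffer A (K+ equilibrium −92 mV) or B (−110 mV). After ionophore, KCl (83.8 or 91.8 mM) stimulus; 10 s fluorescence rise (ex 485/em 510 nm) gave % inhibition and IC50.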
# human Cav3.2 channels [2] = molecular target: T1, human Cav3.2 channels; experiment: Electrophysiological evaluation, whole-cell patch-clamp with automatic patch-clamp system; assay type: cell-based; settings: for inhibition at 0.3 µM: holding potential −80 mV, read-out: Cav3.2 channel current inhibition ratio at 0.3 μM of test compound (holding potential −80 mV)
# Method: Electrophysiological Evaluation
# Stable cell line expressing human Cav3.2 channels, which had been produced by Test method (1) of Example 140, was seeded in a 10-cm dish using DMEM medium containing 10% FBS, and the cells were cultured for 24 hours or longer under the conditions of 37° C. and 5% CO2. The cells were detached using Accutase and were used after being suspended in ice-cold extracellular solution. The Cav3.2 channel current was measured by the Whole-cell patch-clamp method using an automatic patch-clamp system (Port-a-Patch; Nanion Technologies GmbH, EPC-10; HEKA Elektronik GmbH, Patchmaster; HEKA Elektronik GmbH) and buffers described below. Measurement of the Cav3.2 channel current was carried out at room temperature, and the measurement conditions were set as follows: holding potential: −80 mV, depolarization potential: −20 mV, depolarization time: 100 msec, and depolarization frequency: 10 sec. The Cav3.2 channel current was defined as the peak value of the inward current observed when depolarization occurred at −20 mV.
# For a test compound, a DMSO solution was diluted 1,000 times with extracellular solution, and thus a solution having an intended concentration was produced. The test compound was applied using an extracellular perfusion system (Nanion Technologies GmbH) until the Cav3.2 channel current was stabilized, and five concentrations at the maximum from the low-concentration side were cumulatively applied. The inhibition ratio of the test compound was calculated from the current value immediately before the application of the test compound and the change rate of the Cav3.2 channel current after the application of the test compound (conditions for a holding potential of −80 mV: test compound concentration of 0.3 μM, conditions for a holding potential of −100 mV: test compound concentration of 3 μM).
# Extracellular solution: 135 mM NaCl, 4 mM KCl, 1 mM MgCl2, 5 mM CaCl2, 5 mM D-Glucose, and 10 mM HEPES, pH 7.4
# Internal solution for electrode: 10 mM NaCl, 10 mM HEPES, 50 mM CsCl, 60 mM CsF, and 20 mM EGTA, pH 7.2
# [3] = Tables 2 to 6, buffer A, equilibrium potential of potassium −92 mV, read-out: Inhibitory action of buffer A (inactivated state)
# [4] = Table 1, buffer A, equilibrium potential of potassium −92 mV, read-out: Inhibitory action of buffer A (inactivated state)
# [5] = Table 1, buffer B, equilibrium potential of potassium −110 mV, read-out: Inhibitory action of buffer B (resting state or closed state)
compound,measurement,setting,value
"C[C@@H](NC(=O)[C@H]1C[C@@H]1c1nc2ccccc2[nH]1)c1cc2cc(Cl)ccc2o1 [Example 82, (1S,2S)-2-(1H-benzo[d]imidazol-2-yl)-N—((R)-1-(5-chlorobenzofuran-2-yl)ethyl)cyclopropane-1-carboxamide]",IC50,human Cav3.2 channels [1]; [3],≤ 0.1 µM
same,inhibition at 0.3 µM,human Cav3.2 channels [2],88%
"C[C@@H](NC(=O)C1CC1c1ccc2ccccc2n1)c1ccc(OCC(F)(F)F)s1 (single isomer, unassigned) [Example 34A]",IC50,human Cav3.2 channels [1]; [3],0.1 to 1 µM
same,inhibition at 0.3 µM,human Cav3.2 channels [2],58%
"CC(NC(=O)[C@H]1C[C@@H]1c1nc2ccccc2[nH]1)c1nc2cc(F)ccc2s1 (stereo partly drawn) [Example 104, (1S,2S)-2-(1H-benzo[d]imidazol-2-yl)-N-(1-(5-fluorobenzo[d]thiazol-2-yl)ethyl)cyclopropane-1-carboxamide]",IC50,human Cav3.2 channels [1]; [3],≤ 0.1 µM
same,inhibition at 0.3 µM,human Cav3.2 channels [2],52%
"C[C@@H](NC(=O)[C@H]1C[C@@H]1c1nc2ccccc2[nH]1)c1ccc(C(=O)N(C)c2ccc(F)cc2)s1 [Example 62, Trans-5-((1R)-1-(2-(1H-benzo[d]imidazol-2-yl)cyclopropane-1-carboxamido)ethyl)-N-(4-fluorophenyl)-N-methylthiophene-2-carboxamide]",IC50,human Cav3.2 channels [1]; [3],0.1 to 1 µM
same,inhibition at 0.3 µM,human Cav3.2 channels [2],34%
"C[C@@H](NC(=O)C1CC1c1c[nH]c2ccccc12)c1cnc(OCC(F)(F)F)s1 (single isomer, unassigned) [Example 49]",IC50,human Cav3.2 channels [1]; [3],≤ 0.1 µM
same,inhibition at 0.3 µM,human Cav3.2 channels [2],35%
"C[C@@H](NC(=O)C1CC1c1ncc2ccccn12)c1cc2cc(F)ccc2o1 (single isomer, unassigned) [Example 117A]",IC50,human Cav3.2 channels [1]; [3],0.1 to 1 µM
same,inhibition at 0.3 µM,human Cav3.2 channels [2],70%
"C[C@@H](NC(=O)[C@H]1C[C@@H]1c1nc2ccccc2[nH]1)c1ccc2c(c1)OC(F)(F)O2 [Example 73, (1S,2S)-2-(1H-benzo[d]imidazol-2-yl)-N—((R)-1-(2,2-difluorobenzo[d][1,3]dioxol-5-yl)ethyl)cyclopropane-1-carboxamide]",IC50,human Cav3.2 channels [1]; [3],0.1 to 1 µM
same,inhibition at 0.3 µM,human Cav3.2 channels [2],50%
"C[C@@H](NC(=O)[C@H]1C[C@@H]1c1nc2ccccc2[nH]1)c1cc2cc(F)ccc2s1 [Example 66, (1S,2S)-2-(1H-benzo[d]imidazol-2-yl)-N—((R)-1-(5-fluorobenzo[b]thiophen-2-yl)ethyl)cyclopropane-1-carboxamide]",IC50,human Cav3.2 channels [1]; [3],≤ 0.1 µM
same,inhibition at 0.3 µM,human Cav3.2 channels [2],81%
"C[C@@H](NC(=O)[C@H]1C[C@@H]1c1nc2ccccc2[nH]1)c1cc2ccccn2n1 [Example 93, (1S,2S)-2-(1H-benzo[d]imidazol-2-yl)-N—((R)-1-(pyrazolo[1,5-a]pyridin-2-yl)ethyl)cyclopropane-1-carboxamide]",IC50,human Cav3.2 channels [1]; [3],1 to 10 µM
same,inhibition at 0.3 µM,human Cav3.2 channels [2],22%
"C[C@@H](NC(=O)[C@H]1C[C@@H]1c1nc2ccccc2[nH]1)c1ccc(C(=O)OC(C)(C)C)s1 [Example 25A, Trans-5-((1R)-1-(2-(1H-benzo[d]imidazol-2-yl)cyclopropane-1-carboxamido)ethyl)thiophene-2-carboxylic acid tert-butyl ester]",IC50,human Cav3.2 channels [1]; [3],0.1 to 1 µM
same,inhibition at 0.3 µM,human Cav3.2 channels [2],59%
same,Cav3.2 channel current inhibition ratio at 3 μM of test compound (holding potential −100 mV),human Cav3.2 channels [2],54%
"CCn1c([C@H]2C[C@@H]2C(=O)N[C@H](C)c2cc3cc(F)ccc3o2)nc2ccccc21 [Example 102, (1S,2S)-2-(1-ethyl-1H-benzo[d]imidazol-2-yl)-N—((R)-1-(5-fluorobenzofuran-2-yl)ethyl)cyclopropane-1-carboxamide]",IC50,human Cav3.2 channels [1]; [3],≤ 0.1 µM
same,inhibition at 0.3 µM,human Cav3.2 channels [2],74%
"C[C@@H](NC(=O)[C@H]1C[C@@H]1c1nc2ccccc2[nH]1)c1cc2cc(F)cc(F)c2o1 [Example 88, (1S,2S)-2-(1H-benzo[d]imidazol-2-yl)-N—((R)-1-(5,7-difluorobenzofuran-2-yl)ethyl)cyclopropane-1-carboxamide]",IC50,human Cav3.2 channels [1]; [3],≤ 0.1 µM
same,inhibition at 0.3 µM,human Cav3.2 channels [2],37%
"C[C@@H](NC(=O)[C@H]1C[C@@H]1c1nc2ccccc2[nH]1)c1ccc2c(c1)CCO2 [Example 78, (1S,2S)-2-(1H-benzo[d]imidazol-2-yl)-N—((R)-1-(2,3-dihydrobenzofuran-5-yl)ethyl)cyclopropane-1-carboxamide]",IC50,human Cav3.2 channels [1]; [3],0.1 to 1 µM
same,inhibition at 0.3 µM,human Cav3.2 channels [2],49%
"Cc1nc(OCC(F)(F)F)sc1[C@@H](C)NC(=O)[C@H]1C[C@@H]1c1nc2ccccc2[nH]1 [Example 51, (1S,2S)-2-(1H-benzo[d]imidazol-2-yl)-N—((R)-1-(4-methyl-2-(2,2,2-trifluoroethoxy)thiazol-5-yl)ethyl)cyclopropane-1-carboxamide]",IC50,human Cav3.2 channels [1]; [3],0.1 to 1 µM
same,inhibition at 0.3 µM,human Cav3.2 channels [2],33%
"C[C@@H](NC(=O)C1CC1c1nc2ccccc2[nH]1)c1cnc(OCC(F)(F)F)s1 (single isomer, unassigned) [Example 8A]",IC50,human Cav3.2 channels [1]; [4],0.1 to 1 µM
same,IC50,human Cav3.2 channels [1]; [5],> 10 µM
same,inhibition at 0.3 µM,human Cav3.2 channels [2],1%
same,Cav3.2 channel current inhibition ratio at 3 μM of test compound (holding potential −100 mV),human Cav3.2 channels [2],13%
"C[C@@H](NC(=O)[C@H]1C[C@@H]1c1nc2ccccc2[nH]1)c1ccc2ccccc2n1 [Example 52, (1S,2S)-2-(1H-benzo[d]imidazol-2-yl)-N—((R)-1-(quinolin-2-yl)ethyl)cyclopropane-1-carboxamide]",IC50,human Cav3.2 channels [1]; [3],0.1 to 1 µM
same,inhibition at 0.3 µM,human Cav3.2 channels [2],36%
"C[C@@H](NC(=O)C1CC1c1nc2ccccc2[nH]1)c1cnc(OCC(F)(F)F)cn1 (stereo partly drawn) [RQ-00311651, reference compound]",inhibition at 0.3 µM,human Cav3.2 channels [2],17%
same,Cav3.2 channel current inhibition ratio at 3 μM of test compound (holding potential −100 mV),human Cav3.2 channels [2],14%
"Cc1c([C@@H](C)NC(=O)[C@H]2C[C@@H]2c2nc3ccccc3[nH]2)oc2ccc(F)cc12 [Example 101, (1S,2S)-2-(1H-benzo[d]imidazol-2-yl)-N—((R)-1-(5-fluoro-3-methylbenzofuran-2-yl)ethyl)cyclopropane-1-carboxamide]",IC50,human Cav3.2 channels [1]; [3],≤ 0.1 µM
same,inhibition at 0.3 µM,human Cav3.2 channels [2],73%
"C[C@@H](NC(=O)[C@H]1C[C@@H]1c1nc2ccccc2[nH]1)c1cc2ccccc2o1 [Example 76, (1S,2S)-2-(1H-benzo[d]imidazol-2-yl)-N—((R)-1-(benzofuran-2-yl)ethyl)cyclopropane-1-carboxamide]",IC50,human Cav3.2 channels [1]; [3],0.1 to 1 µM
same,inhibition at 0.3 µM,human Cav3.2 channels [2],49%
"CC(C)[C@@H](NC(=O)[C@H]1C[C@@H]1c1nc2ccccc2[nH]1)c1ccc(C(F)(F)F)s1 [Example 50, (1S,2S)-2-(1H-benzo[d]imidazol-2-yl)-N—((R)-2-methyl-1-(5-(trifluoromethyl)thiophen-2-yl)propyl)cyclopropane-1-carboxamide]",IC50,human Cav3.2 channels [1]; [3],0.1 to 1 µM
same,inhibition at 0.3 µM,human Cav3.2 channels [2],43%
"CC(C)[C@@H](NC(=O)[C@H]1C[C@@H]1c1nc2ccccc2[nH]1)c1cc2ccc(F)cc2s1 [Example 120, (1S,2S)-2-(1H-benzo[d]imidazol-2-yl)-N—((R)-1-(6-fluorobenzo[b]thiophen-2-yl)-2-methylpropyl)cyclopropane-1-carboxamide]",IC50,human Cav3.2 channels [1]; [3],0.1 to 1 µM
"C[C@@H](NC(=O)[C@@H]1CCN(CC(=O)Nc2ccccc2)C1)c1ccc(OCC(F)(F)F)s1.Cl [Example 17, hydrochloride]",IC50,human Cav3.2 channels [1]; [4],0.1 to 1 µM
same,IC50,human Cav3.2 channels [1]; [5],1 to 10 µM
same,inhibition at 0.3 µM,human Cav3.2 channels [2],64%
"CC(C)[C@@H](NC(=O)C1CC1c1nc2ccccc2[nH]1)c1ccc(OCC(F)(F)F)s1 (single isomer, unassigned) [Example 44]",IC50,human Cav3.2 channels [1]; [3],≤ 0.1 µM
"C[C@@H](NC(=O)C1CC1c1nccn1Cc1ccccc1)c1ccc(OCC(F)(F)F)s1 (single isomer, unassigned) [Example 38B]",IC50,human Cav3.2 channels [1]; [3],> 10 µM
"C[C@H](NC(=O)C1CC1c1nc2ccccc2[nH]1)c1cnc(OCC(F)(F)F)s1 (single isomer, unassigned) [Example 7A]",IC50,human Cav3.2 channels [1]; [4],1 to 10 µM
same,IC50,human Cav3.2 channels [1]; [5],> 10 µM
